Data published in patent US11439642B2 (Adverio Pharma GmbH, priority 2010, dated 2022).

System: conscious spontaneously hypertensive rats (SHR Okamoto)
Assay: Radiotelemetric measurement of blood pressure on conscious spontaneously hypertensive rats
Type: in vivo, rat
Description: A commercially available telemetry system from DATA SCIENCES INTERNATIONAL DSI, USA, is employed for the blood pressure measurements on conscious rats described below.
The system consists of 3 main components: • implantable transmitters (Physiotel® telemetry transmitter) • receivers (Physiotel® receiver) which are linked via a multiplexer (DSI Data Exchange Matrix) to a • data acquisition computer.
The telemetry system makes it possible to continuously record blood pressure, heart rate and body motions of conscious animals in their usual habitat.
The investigations are carried out on adult female spontaneously hypertensive rats (SHR Okamoto) with a body weight of >200 g. SHR/NCrl from the Okamoto Kyoto School of Medicine, 1963 were a cross of male Wistar Kyoto rats with highly elevated blood pressure and female rats having a slightly elevated blood pressure and at F13 handed over to the U.S. National Institutes of Health.
After transmitter implantation, the experimental animals are housed singly in type 3 Makrolon cages. They have free access to standard feed and water.
The day/night rhythm in the experimental laboratory is changed by the room lighting at 6.00 am and at 7.00 pm.
The telemetry transmitters TA11 PA-C40 used are surgically implanted under aseptic conditions in the experimental animals at least 14 days before the first experimental use. The animals instrumented in this way can be employed repeatedly after the wound has healed and the implant has settled.
For the implantation, the fasted animals are anaesthetized with pentobarbital (Nembutal, Sanofi: 50 mg/kg i.p.) and shaved and disinfected over a large area of their abdomens. After the abdominal cavity has been opened along the linea alba, the liquid-filled measuring catheter of the system is inserted into the descending aorta in the cranial direction above the bifurcation and fixed with tissue glue (VetBonD™, 3M). The transmitter housing is fixed intraperitoneally to the abdominal wall muscle, and layered closure of the wound is performed.
An antibiotic (Tardomyocel COMP, Bayer, 1 ml/kg s.c.) is administered postoperatively for prophylaxis of infection.
Unless indicated otherwise, the substances to be investigated are administered orally by gavage in each case to a group of animals (n=6). The test substances are dissolved in suitable solvent mixtures, or suspended in 0.5% strength Tylose, appropriate for an administration volume of 5 ml/kg of body weight.
A solvent-treated group of animals is employed as control.
The telemetry measuring unit present is configured for 24 animals. Each experiment is recorded under an experiment number (Vyear month day).
Each of the instrumented rats living in the system is assigned a separate receiving antenna (1010 Receiver, DSI).
The implanted transmitters can be activated externally by means of an incorporated magnetic switch and are switched to transmission in the run-up to the experiment. The emitted signals can be detected online by a data acquisition system (Dataquest™ A.R.T. for Windows, DSI) and be appropriately processed. The data are stored in each case in a file created for this purpose and bearing the experiment number.
In the standard procedure, the following are measured for 10-second periods in each case: • systolic blood pressure (SBP) • diastolic blood pressure (DBP) • mean arterial pressure (MAP) • heart rate (HR) • activity (ACT).
The acquisition of measured values is repeated under computer control at 5-minute intervals. The source data obtained as absolute value are corrected in the diagram with the currently measured barometric pressure (Ambient Pressure Reference Monitor; APR-1) and stored as individual data. Further technical details are given in the extensive documentation from the manufacturing company (DSI).
Unless indicated otherwise, the test substances are administered at 9.00 am on the day of the experiment. Following the administration, the parameters described above are measured over 24 hours. […]

[1] = 0.3 mg/kg p.o., 0 hours after substance administration
[2] = 0.3 mg/kg p.o., 1 hours after substance administration
[3] = 0.3 mg/kg p.o., 2 hours after substance administration
[4] = 0.3 mg/kg p.o., 3 hours after substance administration
[5] = 0.3 mg/kg p.o., 4 hours after substance administration
[6] = 0.3 mg/kg p.o., 5 hours after substance administration
[7] = 0.3 mg/kg p.o., 6 hours after substance administration
[8] = 0.3 mg/kg p.o., 7 hours after substance administration
[9] = 0.3 mg/kg p.o., 8 hours after substance administration
[10] = 0.3 mg/kg p.o., 9 hours after substance administration
[11] = 0.3 mg/kg p.o., 10 hours after substance administration
[12] = 0.3 mg/kg p.o., 11 hours after substance administration
[13] = 0.3 mg/kg p.o., 12 hours after substance administration
[14] = 0.3 mg/kg p.o., 13 hours after substance administration
[15] = 0.3 mg/kg p.o., 14 hours after substance administration
[16] = 0.3 mg/kg p.o., 15 hours after substance administration
[17] = 0.3 mg/kg p.o., 16 hours after substance administration
[18] = 0.3 mg/kg p.o., 17 hours after substance administration
[19] = 0.3 mg/kg p.o., 18 hours after substance administration
[20] = 0.3 mg/kg p.o., 19 hours after substance administration
[21] = 0.3 mg/kg p.o., 20 hours after substance administration
[22] = 0.3 mg/kg p.o., 21 hours after substance administration
[23] = 0.3 mg/kg p.o., 22 hours after substance administration
[24] = 0.3 mg/kg p.o., 23 hours after substance administration
[25] = 0.3 mg/kg p.o., 24 hours after substance administration

Structure (SMILES): COC(=O)Nc1c(N)nc(-c2nn(Cc3ccccc3F)c3ncc(F)cc23)nc1N [Example 1, Methyl {4,6-diamino-2-[5-fluoro-1-(2-fluorobenzyl)-1H-pyrazolo[3,4-b]pyridin-3-yl]pyrimidin-5-yl}carbamate]
- mean blood pressure [1]: 151.0 mm Hg
- mean blood pressure [2]: 148.4 mm Hg
- mean blood pressure [3]: 136.4 mm Hg
- mean blood pressure [4]: 130.6 mm Hg
- mean blood pressure [5]: 129.1 mm Hg
- mean blood pressure [6]: 132.8 mm Hg
- mean blood pressure [7]: 125.6 mm Hg
- mean blood pressure [8]: 131.9 mm Hg
- mean blood pressure [9]: 131.8 mm Hg
- mean blood pressure [10]: 138.5 mm Hg
- mean blood pressure [11]: 138.3 mm Hg
- mean blood pressure [12]: 138.9 mm Hg
- mean blood pressure [13]: 137.7 mm Hg
- mean blood pressure [14]: 142.9 mm Hg
- mean blood pressure [15]: 144.5 mm Hg
- mean blood pressure [16]: 143.8 mm Hg
- mean blood pressure [17]: 146.3 mm Hg
- mean blood pressure [18]: 141.8 mm Hg
- mean blood pressure [19]: 138.4 mm Hg
- mean blood pressure [20]: 149.2 mm Hg
- mean blood pressure [21]: 145.1 mm Hg
- mean blood pressure [22]: 142.1 mm Hg
- mean blood pressure [23]: 141.8 mm Hg
- mean blood pressure [24]: 143.6 mm Hg
- mean blood pressure [25]: 135.1 mm Hg
- mean blood pressure (3.0 mg/kg p.o., 0 hours after substance administration): 149.0 mm Hg
- mean blood pressure (3.0 mg/kg p.o., 1 hours after substance administration): 129.3 mm Hg
- mean blood pressure (3.0 mg/kg p.o., 2 hours after substance administration): 111.1 mm Hg
- mean blood pressure (3.0 mg/kg p.o., 3 hours after substance administration): 106.0 mm Hg
- mean blood pressure (3.0 mg/kg p.o., 4 hours after substance administration): 107.8 mm Hg
- mean blood pressure (3.0 mg/kg p.o., 5 hours after substance administration): 109.3 mm Hg
- mean blood pressure (3.0 mg/kg p.o., 6 hours after substance administration): 106.8 mm Hg
- mean blood pressure (3.0 mg/kg p.o., 7 hours after substance administration): 110.9 mm Hg
- mean blood pressure (3.0 mg/kg p.o., 8 hours after substance administration): 109.8 mm Hg
- mean blood pressure (3.0 mg/kg p.o., 9 hours after substance administration): 114.3 mm Hg
- mean blood pressure (3.0 mg/kg p.o., 10 hours after substance administration): 114.5 mm Hg
- mean blood pressure (3.0 mg/kg p.o., 11 hours after substance administration): 115.6 mm Hg
- mean blood pressure (3.0 mg/kg p.o., 12 hours after substance administration): 118.8 mm Hg
- mean blood pressure (3.0 mg/kg p.o., 13 hours after substance administration): 120.4 mm Hg
- mean blood pressure (3.0 mg/kg p.o., 14 hours after substance administration): 122.8 mm Hg
- mean blood pressure (3.0 mg/kg p.o., 15 hours after substance administration): 125.8 mm Hg
- mean blood pressure (3.0 mg/kg p.o., 16 hours after substance administration): 131.5 mm Hg
- mean blood pressure (3.0 mg/kg p.o., 17 hours after substance administration): 124.7 mm Hg
- mean blood pressure (3.0 mg/kg p.o., 18 hours after substance administration): 129.6 mm Hg
- mean blood pressure (3.0 mg/kg p.o., 19 hours after substance administration): 135.6 mm Hg
- mean blood pressure (3.0 mg/kg p.o., 20 hours after substance administration): 135.2 mm Hg
- mean blood pressure (3.0 mg/kg p.o., 21 hours after substance administration): 129.3 mm Hg
- mean blood pressure (3.0 mg/kg p.o., 22 hours after substance administration): 128.3 mm Hg
- mean blood pressure (3.0 mg/kg p.o., 23 hours after substance administration): 130.2 mm Hg
- mean blood pressure (3.0 mg/kg p.o., 24 hours after substance administration): 130.8 mm Hg

Structure (SMILES): COC(=O)N(C)c1c(N)nc(-c2nn(Cc3ccccc3F)c3ncc(F)cc23)nc1N [Example 2]
- mean blood pressure [1]: 161.3 mm Hg
- mean blood pressure [2]: 145.7 mm Hg
- mean blood pressure [3]: 130.5 mm Hg
- mean blood pressure [4]: 121.5 mm Hg
- mean blood pressure [5]: 123.1 mm Hg
- mean blood pressure [6]: 121.6 mm Hg
- mean blood pressure [7]: 123.8 mm Hg
- mean blood pressure [8]: 124.4 mm Hg
- mean blood pressure [9]: 128.7 mm Hg
- mean blood pressure [10]: 133.7 mm Hg
- mean blood pressure [11]: 139.2 mm Hg
- mean blood pressure [12]: 137.9 mm Hg
- mean blood pressure [13]: 143.0 mm Hg
- mean blood pressure [14]: 146.0 mm Hg
- mean blood pressure [15]: 149.2 mm Hg
- mean blood pressure [16]: 152.3 mm Hg
- mean blood pressure [17]: 155.5 mm Hg
- mean blood pressure [18]: 156.3 mm Hg
- mean blood pressure [19]: 157.3 mm Hg
- mean blood pressure [20]: 156.9 mm Hg
- mean blood pressure [21]: 156.3 mm Hg
- mean blood pressure [22]: 149.3 mm Hg
- mean blood pressure [23]: 147.1 mm Hg
- mean blood pressure [24]: 153.1 mm Hg
- mean blood pressure [25]: 152.3 mm Hg
